Test systems include OVCAR-4 ovarian; ACHN renal; NCI-H522 lung; CCRF-CEM leukemia; SNB-19 CNS; UACC-62 melanoma; SW-620 colon; IGROV1 ovarian; MCF7 breast; 786-0 renal; HCT-116 colon.
Common to all, as to experiment: inhibition of tumour cell growth, NCI panel, 48 h

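Exposure lasted 48 hours, with cells grown in 96-well plates and compounds tested at five concentrations. At the TGI there is no net growth.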

Take `C=C(C)[C@@H]1CCC2=C[C@H](CC(C)=CC3=CC(C)=C(O3)[C@@H]1OC)OC2=O`: the TGI in the assay on OVCAR-4 ovarian, in the assay on ACHN renal, in the assay with NCI-H522 lung, in the assay with CCRF-CEM leukemia, in the assay on SNB-19 CNS and with UACC-62 melanoma was more than 100 µM throughout. Besides, the TGI in the assay on SW-620 colon, in the assay on IGROV1 ovarian and in the assay with MCF7 breast was more than 100 µM in each case.
Take `CC(C)(C)[C@H]1CCC2(OCCO2)[C@](O)(CCCO)C1`: the TGI with OVCAR-4 ovarian, in the assay on ACHN renal, in the assay on NCI-H522 lung, with CCRF-CEM leukemia, in the assay with 786-0 renal and in the assay with SNB-19 CNS was more than 100 µM throughout. Besides, the TGI in the assay on UACC-62 melanoma, in the assay on SW-620 colon, in the assay on HCT-116 colon, in the assay on IGROV1 ovarian and in the assay on MCF7 breast was more than 100 µM throughout.
With `O=C1CCCC2=C1CC1=C(CCCC1=O)N2c1ccccc1`, the TGI in the assay with OVCAR-4 ovarian, in the assay on ACHN renal, with CCRF-CEM leukemia, in the assay with 786-0 renal, in the assay on SNB-19 CNS and with UACC-62 melanoma was more than 100 µM throughout. For the same compound, the TGI with SW-620 colon, with IGROV1 ovarian and in the assay on MCF7 breast was more than 100 µM in each case.
Take `COc1cc2c(cc1OC)-c1cc3cc(OC)c(OC)cc3c(=O)n1CC2`: the TGI with OVCAR-4 ovarian was more than 100 µM; with ACHN renal it was more than 86 µM; in the assay on NCI-H522 lung, more than 25.7 µM; in the assay with CCRF-CEM leukemia it was more than 100 µM; in the assay with 786-0 renal it was more than 100 µM; in the assay on SNB-19 CNS, more than 100 µM. For the same compound, the TGI in the assay on UACC-62 melanoma was 34.7 µM; in the assay with SW-620 colon, more than 100 µM; in the assay on HCT-116 colon, more than 53.4 µM; in the assay on IGROV1 ovarian, more than 62.3 µM; in the assay on MCF7 breast, more than 100 µM.
For `Clc1nc(Cl)c(CBr)c(Cl)n1`, the TGI was determined as 19.7 µM in the assay on OVCAR-4 ovarian; 15.7 µM in the assay with ACHN renal; 2.92 µM in the assay with NCI-H522 lung; 3.41 µM with CCRF-CEM leukemia; 5.18 µM with 786-0 renal; 33.3 µM with SNB-19 CNS. In addition, the TGI turned out to be 11.4 µM in the assay with UACC-62 melanoma; 3.99 µM in the assay with SW-620 colon; 5.55 µM in the assay on HCT-116 colon; 14.1 µM with IGROV1 ovarian; 26 µM in the assay with MCF7 breast.
In the case of `CCOC(=O)C(C(=O)OCC)=C1NC2(c3ccccc3Nc3ccc(C)cc32)C(C(=O)OC)S1` (centres undefined), the TGI in the assay on OVCAR-4 ovarian, with ACHN renal, in the assay with NCI-H522 lung, in the assay with CCRF-CEM leukemia, in the assay on 786-0 renal and in the assay on SNB-19 CNS was more than 100 µM in each case. For the same compound, the TGI with UACC-62 melanoma, with SW-620 colon, in the assay with HCT-116 colon, in the assay on IGROV1 ovarian and in the assay on MCF7 breast was more than 100 µM throughout.
As to `CC(NC(=O)C(N)CC(=O)O)NC(=O)N(C)C(C)(C)C` (centres undefined), the TGI in the assay on OVCAR-4 ovarian, with ACHN renal, in the assay on NCI-H522 lung, in the assay on CCRF-CEM leukemia, with 786-0 renal and in the assay with SNB-19 CNS was more than 100 µM throughout. The TGI in the assay on UACC-62 melanoma, in the assay with SW-620 colon, in the assay on HCT-116 colon, in the assay on IGROV1 ovarian and in the assay on MCF7 breast was more than 100 µM each time.
`CCc1nc2ccc(C(F)(F)F)cc2[nH]c1=O`: the TGI with OVCAR-4 ovarian, in the assay with ACHN renal, in the assay with CCRF-CEM leukemia, with 786-0 renal, in the assay with SNB-19 CNS and in the assay with UACC-62 melanoma was more than 100 µM in each case. Also, the TGI in the assay on SW-620 colon, with HCT-116 colon and in the assay on MCF7 breast was more than 100 µM each time.
Take `COC(=O)c1ccccc1C1CN=NC12Cc1cccc(C)c1C2=O` (centres undefined): the TGI in the assay with OVCAR-4 ovarian, in the assay on ACHN renal, in the assay with NCI-H522 lung, in the assay on CCRF-CEM leukemia, in the assay on 786-0 renal and in the assay on SNB-19 CNS was more than 100 µM in each case. For the same compound, the TGI in the assay with UACC-62 melanoma is more than 100 µM; in the assay on SW-620 colon, more than 100 µM; in the assay on HCT-116 colon, more than 100 µM; in the assay with IGROV1 ovarian it was more than 100 µM; with MCF7 breast it was 91.9 µM.
For the compound `CC1(CC2=C(C(=O)NCCO[Si](C)(C)C(C)(C)C)C3(OCCO3)C2=O)OCCO1`, the TGI in the assay on OVCAR-4 ovarian was more than 100 µM; with ACHN renal, more than 100 µM; in the assay on NCI-H522 lung, 93.7 µM; with CCRF-CEM leukemia, more than 100 µM; in the assay on 786-0 renal, more than 100 µM; in the assay with SNB-19 CNS, more than 100 µM. Moreover, the TGI in the assay with UACC-62 melanoma, with SW-620 colon, in the assay on HCT-116 colon, with IGROV1 ovarian and with MCF7 breast was more than 100 µM throughout.
`CC(=O)OCC1=C(C)C[C@H]([C@@H](COC(C)=O)C2CCC3C4C[C@H]5O[C@]56CC=CC(=O)[C@]6(C)C4CC[C@@]32C)OC1=O` (some centres undefined): the TGI came to 9.9 µM in the assay with OVCAR-4 ovarian; 2.68 µM with ACHN renal; 0.592 µM in the assay on NCI-H522 lung; 0.353 µM with CCRF-CEM leukemia; 1.58 µM in the assay on 786-0 renal; 7.72 µM in the assay on SNB-19 CNS. Moreover, the TGI in the assay with UACC-62 melanoma amounted to 0.976 µM; with SW-620 colon, 0.322 µM; with HCT-116 colon, 0.3 µM; in the assay with IGROV1 ovarian, 0.849 µM; with MCF7 breast it was 2.09 µM.
In the case of `CCSc1nc(N)c2c(-c3ccccc3)c3c(nc2n1)CCC3`, the TGI with OVCAR-4 ovarian, in the assay with ACHN renal, with CCRF-CEM leukemia, in the assay on SNB-19 CNS, in the assay on UACC-62 melanoma and in the assay with SW-620 colon was more than 100 µM each time. In addition, the TGI in the assay with HCT-116 colon, in the assay on IGROV1 ovarian and in the assay with MCF7 breast was more than 100 µM each time.
`CSc1nc2c(=O)n(-c3ccccc3)c(=S)n(-c3ccccc3)c2s1`: the TGI in the assay on OVCAR-4 ovarian was more than 100 µM; in the assay on ACHN renal it was more than 100 µM; in the assay on NCI-H522 lung, more than 100 µM; in the assay on CCRF-CEM leukemia, more than 100 µM; with 786-0 renal, more than 100 µM; in the assay with SNB-19 CNS it was 64.7 µM. Moreover, the TGI in the assay with SW-620 colon, in the assay with HCT-116 colon, with IGROV1 ovarian and in the assay with MCF7 breast was more than 100 µM each time.
